In PubChem BioAssay (NCI) one finds GI50 and TGI data, which are given here for nine molecules.

Some test systems named below: ACHN renal; COLO 205 colon; HCC-2998 colon; K-562 leukemia; M14 melanoma; MALME-3M melanoma; MCF7 breast; OVCAR-4 ovarian; SF-268 CNS; UO-31 renal.
Holding throughout (assay): DTP human tumour cell line panel, 48 h

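How tested: cells in 96-well plates exposed to compound for 48 hours at five concentrations. GI50 marks 50% less growth. The concentration for full growth arrest is given as TGI.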

`CC(C)(C)OC(=O)NCc1cccc(N=C=S)c1`: the GI50 in the experiment with ACHN renal is 21.1 µM; with COLO 205 colon, 15.7 µM; in the experiment on HCC-2998 colon, 16.3 µM; in the experiment on K-562 leukemia, 28.4 µM; in the experiment with M14 melanoma it was 15.3 µM; with MALME-3M melanoma, 14.4 µM. Moreover, the GI50 is 16.6 µM with MCF7 breast, 16.7 µM in the experiment with OVCAR-4 ovarian, 21 µM in the experiment on SF-268 CNS and 15.4 µM with UO-31 renal. Further, the TGI is 67.6 µM in the experiment with ACHN renal; 33.9 µM in the experiment with COLO 205 colon; 30.9 µM with HCC-2998 colon; above 88.2 µM with K-562 leukemia; 37 µM in the experiment on M14 melanoma; 45.1 µM in the experiment on MALME-3M melanoma. Besides, the TGI with MCF7 breast was 42.4 µM; in the experiment on OVCAR-4 ovarian, 51.8 µM; with SF-268 CNS, 64.9 µM; in the experiment with UO-31 renal it was 38.8 µM.

Take `COC(=O)c1cc(OC)c(OC)c(OC)c1-c1cc2c(cc1C=O)OCO2`: the TGI in the experiment with ACHN renal, in the experiment with COLO 205 colon, in the experiment with HCC-2998 colon, with K-562 leukemia, in the experiment on M14 melanoma and in the experiment with MALME-3M melanoma was above 10 µM throughout. For the same molecule, the TGI in the experiment with MCF7 breast, in the experiment on OVCAR-4 ovarian, in the experiment on SF-268 CNS and in the experiment with UO-31 renal was above 10 µM each time.

As to `CC(=O)Nc1n[n+]([O-])c2cc(C)ccc2[n+]1[O-]`, the TGI in the experiment with ACHN renal is 11.2 µM; in the experiment with COLO 205 colon, 8.48 µM; in the experiment with HCC-2998 colon it was 71 µM; in the experiment on K-562 leukemia, above 49.3 µM; in the experiment on M14 melanoma, 8.3 µM; in the experiment on MALME-3M melanoma, 18.5 µM. Also, the TGI in the experiment on MCF7 breast was 3.66 µM; in the experiment with OVCAR-4 ovarian, 18 µM; in the experiment with SF-268 CNS, 19.7 µM; in the experiment on UO-31 renal it was 17.2 µM.

Take `Nc1nc(N)c2nc3c(nc2n1)CCCCCCCCCC3`: the GI50 was 2.98 µM in the experiment on ACHN renal; 6.83 µM in the experiment with COLO 205 colon; 3.83 µM in the experiment with HCC-2998 colon; 0.43 µM in the experiment with K-562 leukemia; 0.544 µM in the experiment on M14 melanoma; 4.48 µM with MALME-3M melanoma. Besides, the GI50 in the experiment with MCF7 breast is 2.96 µM; in the experiment with OVCAR-4 ovarian, above 100 µM; in the experiment with SF-268 CNS, 2.1 µM; in the experiment with UO-31 renal, 1.88 µM. In addition, the TGI in the experiment with ACHN renal, in the experiment with COLO 205 colon, in the experiment with HCC-2998 colon, in the experiment on K-562 leukemia, in the experiment on M14 melanoma and in the experiment with MALME-3M melanoma was above 100 µM each time. In addition, the TGI in the experiment with MCF7 breast, in the experiment with OVCAR-4 ovarian, in the experiment with SF-268 CNS and in the experiment on UO-31 renal was above 100 µM in each case.

`CN(C)c1ccc(/C=N/S(=O)(=O)c2ccc(-n3c(-c4ccccc4)nc4c(Br)cc(Br)cc4c3=O)cc2)cc1`: the GI50 with ACHN renal is 40.4 µM; in the experiment on COLO 205 colon, 44.9 µM; in the experiment on HCC-2998 colon it was 51.2 µM; in the experiment with K-562 leukemia it was 31.3 µM; in the experiment with M14 melanoma it was 31.1 µM; in the experiment with MALME-3M melanoma, 47.2 µM. Also, the GI50 with MCF7 breast is 28.8 µM; with OVCAR-4 ovarian it was 30.3 µM; with SF-268 CNS it was 48.5 µM; in the experiment on UO-31 renal, 32.6 µM. Also, the TGI was above 100 µM in the experiment with ACHN renal; above 100 µM in the experiment on COLO 205 colon; above 100 µM with HCC-2998 colon; above 86.5 µM in the experiment with K-562 leukemia; above 93.5 µM with M14 melanoma; above 89.7 µM in the experiment on MALME-3M melanoma. Besides, the TGI was above 78 µM in the experiment on MCF7 breast, 97.3 µM in the experiment with OVCAR-4 ovarian, above 100 µM in the experiment on SF-268 CNS and above 100 µM in the experiment with UO-31 renal.

With `CN(C)c1cccc(F)c1C(=O)NC(=O)Nc1ccc(Cl)cc1`, the TGI with ACHN renal was above 100 µM; in the experiment on COLO 205 colon it was above 100 µM; with HCC-2998 colon, 28.3 µM; with K-562 leukemia, above 34.4 µM; with M14 melanoma, above 100 µM; in the experiment with MALME-3M melanoma, above 100 µM. Further, the TGI in the experiment on MCF7 breast, in the experiment with OVCAR-4 ovarian, in the experiment on SF-268 CNS and with UO-31 renal was above 100 µM throughout.

As to `O=C(O)c1c(Br)c(Br)c(Br)c(Br)c1C1c2ccc(O)cc2Oc2cc(O)ccc21`, the TGI with ACHN renal, in the experiment on COLO 205 colon, in the experiment with HCC-2998 colon, in the experiment on K-562 leukemia, in the experiment with M14 melanoma and in the experiment with MALME-3M melanoma was above 100 µM each time. Moreover, the TGI with MCF7 breast, in the experiment on OVCAR-4 ovarian, with SF-268 CNS and in the experiment on UO-31 renal was above 100 µM throughout.

For `COc1cnc2c(c1)C(=O)c1c-2n(CCCN2CCC(O)CC2)c(=O)c2cc(Cl)ccc12`, the GI50 is 0.0903 µM with ACHN renal; 0.661 µM with COLO 205 colon; 1.59 µM in the experiment with HCC-2998 colon; 1.43 µM with K-562 leukemia; 0.0914 µM with M14 melanoma; 14.1 µM with MALME-3M melanoma. Moreover, the GI50 in the experiment on MCF7 breast is 0.0422 µM; in the experiment with OVCAR-4 ovarian it was 1.34 µM; in the experiment with SF-268 CNS it was 0.211 µM; in the experiment on UO-31 renal it was 0.271 µM. For the same molecule, the TGI with ACHN renal was 1.5 µM; in the experiment with COLO 205 colon it was 2.64 µM; with HCC-2998 colon, 11.1 µM; in the experiment with K-562 leukemia, 6.34 µM; in the experiment with M14 melanoma, 1.86 µM; in the experiment with MALME-3M melanoma, 27.9 µM. Besides, the TGI in the experiment on MCF7 breast came out at 1.54 µM; in the experiment with OVCAR-4 ovarian, 3.08 µM; in the experiment with SF-268 CNS, 2.34 µM; in the experiment with UO-31 renal, 1.59 µM.

Consider `NC1(Cc2ccc(Cl)cc2)CCN(c2ncnc3[nH]ccc23)CC1`, for which the GI50 with ACHN renal is 5.58 µM; in the experiment on COLO 205 colon, 3.72 µM; with HCC-2998 colon, 3.89 µM; in the experiment on K-562 leukemia it was 4.66 µM; in the experiment with M14 melanoma, 8.58 µM; with MALME-3M melanoma, 6.3 µM. The GI50 with MCF7 breast was 4.1 µM; in the experiment on OVCAR-4 ovarian, 17.6 µM; in the experiment with SF-268 CNS it was 6.66 µM; with UO-31 renal, 1.54 µM. In addition, the TGI was determined as 32.1 µM in the experiment on ACHN renal; 15.1 µM in the experiment on COLO 205 colon; 17 µM in the experiment with HCC-2998 colon; 19.4 µM in the experiment on K-562 leukemia; 23.6 µM with M14 melanoma; 21.6 µM with MALME-3M melanoma. The TGI with MCF7 breast stood at 17.6 µM; in the experiment with OVCAR-4 ovarian, 60.5 µM; with SF-268 CNS, 21.3 µM; in the experiment with UO-31 renal it was 13 µM.
